Test results from patent publication US20180200257A1, “METHODS FOR THE TREATMENT OF INFLAMMATORY DISORDERS” (Galapagos NV, priority 2015, published 2018).

Assays:
[1] = test system: subjects with moderately to severely active RA who have an inadequate response to methotrexate (MTX); assay: Study 2 (monotherapy) - serum CRP values; type: in vivo, human
Description: Randomized, double-blind, placebo-controlled, multicenter, phase IIb dose finding study of Compound 1 (dosed as a [Compound 1:HCl:3H2O]) administered for 24 weeks as monotherapy to subjects with moderately to severely active rheumatoid arthritis who have an inadequate response to methotrexate alone
Double-blind, placebo-controlled, monotherapy study in subjects with moderately to severely active RA who have an inadequate response to methotrexate (MTX) (oral or parenteral).
280 subjects randomized to one of 3 doses of Compound 1 (dosed as a [Compound 1:HCl:3H2O]) or to placebo, given once daily (q.d.).
Twelve weeks of treatment with Compound 1 (dosed as a [Compound 1:HCl:3H2O]) at 50 mg, 100 mg, or 200 mg q.d.; or placebo. At Week 12, all subjects on placebo and the subjects on the 50 mg dose who have not achieved 20% improvement in swollen joint count (SJC66) and tender joint count (TJC68) will be assigned to 100 mg q.d. in a blinded fashion and will continue treatment until Week 24. Subjects in the other groups will maintain their randomized treatment until Week 24.
CRP determination is available at Quest Diagnostics, Clinical Trials, Quest House, 125-135 Staines Road, Hounslow, Middlesex, TW3 3JB, United Kingdom under Catalogue n#86140.
The determination of CRP is made using Immunoturbidimetric assay for the in vitro quantitative determination of CRP in human serum and plasma on Roche/Hitachi cobas c systems, wherein human CRP agglutinates with latex particles coated with monoclonal anti-CRP antibodies. The aggregates are determined turbidimetrically (Eda et al., 1998; Price et al., 1987).
Human serum and plasma samples CRP determination was done on a Roche/Hitachi Cobas c 301 c 501/502 system which automatically calculate the analyte concentration of each sample. Samples containing precipitates are centrifuged before performing the assay.
The machine parameters are listed in Table XCI and Table XCII below, and the results at 12 weeks v using either LOCF are shown in Table XCIII and below. The Hommel-corrected p-value for the pairwise comparisons of each group with placebo is shown.
The number of subjects (N) provided in each groups corresponds to the number of subjects starting the study in each group, and the CRP data reported below corresponds to the responding subjects continuing for the entire 24 weeks on their initial treatment course.

[2] = test system: Subjects With Active Crohn's Disease With Evidence of Mucosal Ulceration; assay: Study 3 - Inflammatory Bowel Disease Questionnaire (IBDQ) scores; type: in vivo, human; conditions: 200 mg, LOCF
Description: Double-Blind, Randomized, Placebo-Controlled, Multi-Centre Study to Investigate the Efficacy and Safety of Compound 1 in Subjects With Active Crohn's Disease With Evidence of Mucosal Ulceration. This is a double-blind, randomized, placebo-controlled, multi-centre Phase 2 study to investigate the efficacy and safety of Compound 1 administered once daily for the treatment of active CD with evidence of mucosal ulceration. The pharmacokinetics (including a PK substudy) and pharmacodynamics of Compound 1 and metabolite in CD will also be characterised. A total of 180 eligible subjects will be randomized to receive Compound 1 or placebo in addition to their stable background treatment (eg, corticosteroids, aminosalicylates, or CD-related antibiotics). The study will consist of 2 parts, with total treatment duration of 20 weeks. Randomization in Part 1 will be stratified according the subject's previous anti-TNF exposure/response, CRP level at Screening, and oral corticosteroid use at visit Day -1. After the first 10 weeks of treatment in Part 1, patients will be re-randomized for Part 2 as shown in the diagram below and will be stratified according to the subject's clinical response, previous anti-TNF exposure/response, and oral corticosteroid use at visit Day -1. [table] The Inflammatory Bowel Disease Questionnaire (IBDQ) is a questionnaire for health-related quality of life assessment in patients with inflammatory bowel diseases: ulcerative colitis and Crohn's disease. It consists of 32 questions divided into four groups: bowel symptoms (10 items), systemic symptoms (5 items), emotional function (12 items) and social function (5 items). Every question has graded responses from 1 to 7, and thus the total score is ranging from 32 to 224 with higher scores representing better quality of life. The IBDQ is a validated assessment tool that reflects important changes in the quality of life of patients with IBD (adapted from […] et al, Inflamm Bowel Dis, Volume 10, Number 3, May 2004)

O=C(Nc1nc2cccc(-c3ccc(CN4CCS(=O)(=O)CC4)cc3)n2n1)C1CC1 [Compound 1, cyclopropanecarboxylic acid {5-[4-(1,1-dioxo-thiomorpholin-4-ylmethyl)-phenyl]-[1,2,4]triazolo[1,5-a]pyridin-2-yl}-amide]
CRP mean CFB mg/L (LOCF) ([1]; 50 mg q.d., week 1, 12 weeks results): -3.70 mg/L
CRP mean CFB mg/L (LOCF) ([1]; 50 mg q.d., week 2, 12 weeks results): -4.16 mg/L
CRP mean CFB mg/L (LOCF) ([1]; 50 mg q.d., week 4, 12 weeks results): -9.46 mg/L
CRP mean CFB mg/L (LOCF) ([1]; 50 mg q.d., week 12, 12 weeks results): -4.43 mg/L
CRP mean CFB mg/L (LOCF) ([1]; 50 mg q.d., week 8, 12 weeks results): -11.16 mg/L
CRP mean CFB mg/L (LOCF) ([1]; 100 mg q.d., week 1, 12 weeks results): -10.33 mg/L
CRP mean CFB mg/L (LOCF) ([1]; 100 mg q.d., week 2, 12 weeks results): -8.67 mg/L
CRP mean CFB mg/L (LOCF) ([1]; 100 mg q.d., week 4, 12 weeks results): -12.08 mg/L
CRP mean CFB mg/L (LOCF) ([1]; 100 mg q.d., week 12, 12 weeks results): -12.25 mg/L
CRP mean CFB mg/L (LOCF) ([1]; 100 mg q.d., week 8, 12 weeks results): -14.17 mg/L
CRP mean CFB mg/L (LOCF) ([1]; 200 mg q.d., week 1, 12 weeks results): -12.58 mg/L
CRP mean CFB mg/L (LOCF) ([1]; 200 mg q.d., week 2, 12 weeks results): -13.28 mg/L
CRP mean CFB mg/L (LOCF) ([1]; 200 mg q.d., week 4, 12 weeks results): -13.04 mg/L
CRP mean CFB mg/L (LOCF) ([1]; 200 mg q.d., week 12, 12 weeks results): -14.85 mg/L
CRP mean CFB mg/L (LOCF) ([1]; 200 mg q.d., week 8, 12 weeks results): -13.86 mg/L
IBDQ Bowel symptoms ([2]; Baseline): 41.07
IBDQ Emotional status ([2]; Baseline): 45.91
IBDQ Social functioning ([2]; Baseline): 19.26
IBDQ Systemic symptoms ([2]; Baseline): 16.32
IBDQ mean CFB ([2]; Baseline): 123.00
IBDQ Bowel symptoms ([2]; week 10): 9.96
IBDQ Emotional status ([2]; week 10): 12.07
IBDQ Social functioning ([2]; week 10): 6.19
IBDQ Systemic symptoms ([2]; week 10): 5.73
IBDQ mean CFB ([2]; week 10): 33.82
